# Results as given in US5493007A, “Platelet aggregation inhibitors having high specificity for GPIIBIIIA” (Genentech, Inc., priority 1994, dated 1996).
# *1 amine or outer side, *2 acyl side, *3 side chain or, on linkers, in order; H or OH if unused. Where a SMILES comes first, the peptide text is derived from it. Bridges are numbered along the chain shown (N, C = ends). [ ]: non-standard residue; d: D form. Cys(O)(CH2CO) = O=C([C@H](C[S+]([O-])CC(=O)[*:3])N[*:1])[*:2]; Aad = N[C@@H](CCCC(=O)O)C(=O)O; Pen = CC(C)(S)[C@H](N)C(=O)O; dOrn = NCCC[C@@H](N)C(=O)O
# Tested on: New Zealand White rabbits
# Experiment: Rabbit peripheral blood flow (PBF) by observation of ear vessels
# Format: in vivo
# Design: key to PBF: NORMAL: Normal flow is defined as ears that appear pink to red, with no visible constriction of the major blood vessels; Decreased flow applies to ears that have constricted vessels resulting in cold, pallid ears for up to 40 minutes following the start of the inhibitor infusion
# Conditions: rabbit, i.v. bolus 0.5 mg/kg + 0.012 mg/kg infused over 60 minutes; measured visually
# Protocol: Catheters are flushed and locked after every sample.
# For the experiments summarized in Table 1, PBF was monitored by observation of the condition of the blood vessels in the rabbits' ears, prior to and during the infusion. Normal flow is defined as ears that appear pink to red, with no visible constriction of the major blood vessels. Decreased flow applies to ears that have constricted vessels resulting in cold, pallid ears for up to 40 minutes following the start of the inhibitor infusion.
row,Compound,PBF
1,"N=C(N)NCCC[C@H](NC(=O)[C@@H]1C[S+]([O-])CC(=O)N[C@H](Cc2ccc(O)cc2)C(=O)N[C@@H](CCCNC(=N)N)C(=O)NCC(=O)N[C@@H](CC(=O)O)C(=O)N1)C(N)=O (single isomer, unassigned) [drawing 33]",NORMAL

# Same assay, conditions: rabbit, i.v. bolus 1.5 mg/kg + 0.036 mg/kg infused over 60 minutes; measured visually
row,Compound,PBF
1,N=C(N)NCCC[C@@H]1NC(=O)[C@@H](Cc2ccc(O)cc2)NC(=O)[C@@H](CCCNC(=N)N)SC[C@@H](C(=O)O)NC(=O)[C@H](CC(=O)O)NC(=O)CNC1=O,NORMAL
2,N=C(N)NCCC[C@@H]1NC(=O)[C@@H](Cc2ccc(O)cc2)NC(=O)[C@H](CCCNC(=N)N)SC[C@@H](C(=O)O)NC(=O)[C@H](CC(=O)O)NC(=O)CNC1=O,NORMAL
3,N=C(N)NCCC[C@@H]1NC(=O)[C@@H](Cc2ccc(O)cc2)NC(=O)C[S+]([O-])C[C@@H](C(=O)N[C@@H](CCCN)C(N)=O)NC(=O)[C@H](CC(=O)O)NC(=O)CNC1=O (stereo partly drawn),NORMAL
4,"NCCCC[C@@H]1NC(=O)[C@@H](Cc2ccc(O)cc2)NC(=O)C(c2ccccc2)SC[C@@H](C(=O)O)NC(=O)[C@H](CC(=O)O)NC(=O)CNC1=O (single isomer, unassigned) [drawing 13]",NORMAL
5,"N=C(N)NCCC[C@@H]1NC(=O)[C@@H](Cc2ccc(O)cc2)NC(=O)C(CCCCN)SC[C@@H](C(=O)O)NC(=O)[C@H](CC(=O)O)NC(=O)CNC1=O (single isomer, unassigned) [drawing 22]",NORMAL
6,"N=C(N)NCCC[C@@H]1NC(=O)[C@@H](Cc2ccc(O)cc2)NC(=O)C(CCCCN)SC[C@@H](C(=O)O)NC(=O)[C@H](CC(=O)O)NC(=O)CNC1=O (single isomer, unassigned) [drawing 23]",NORMAL
7,"N=C(N)NCCC[C@H](NC(=O)[C@@H]1C[S+]([O-])CC(=O)N[C@H](Cc2ccc(O)cc2)C(=O)N[C@@H](CCCNC(=N)N)C(=O)NCC(=O)N[C@@H](CC(=O)O)C(=O)N1)C(N)=O (single isomer, unassigned) [drawing 34]",NORMAL
8,CC1(C)SCC(=O)N[C@H](Cc2ccc(O)cc2)C(=O)N[C@@H](CCCCN)C(=O)NCC(=O)N[C@@H](CC(=O)O)C(=O)N[C@@H]1C(=O)O [drawing 9] ({CH2CO}-[dY]KGD[Pen]-OH; thioether N-5),NORMAL
9,N=C(N)NCCC[C@H](NC(=O)[C@@H]1CSCC(=O)N[C@H](Cc2ccc(O)cc2)C(=O)N[C@@H](CCCNC(=N)N)C(=O)NCC(=O)N[C@@H](CC(=O)O)C(=O)N1)C(N)=O [drawing 15] ({CH2CO}-[dY]RGDCR-NH2; thioether N-5),NORMAL
10,N=C(N)NCCC[C@@H]1NC(=O)[C@@H](Cc2ccc(O)cc2)NC(=O)CSC[C@@H](C(=O)N[C@H](CCCN)C(N)=O)NC(=O)[C@H](CC(=O)O)NC(=O)CNC1=O [drawing 18] ({CH2CO}-[dY]RGDC[dOrn]-NH2; thioether N-5),NORMAL
11,CC1(C)SCC(=O)N[C@H](Cc2ccc(O)cc2)C(=O)N[C@@H](CCCCN)C(=O)NCC(=O)N[C@@H](CC(=O)O)C(=O)N[C@@H]1C(=O)N[C@@H](CCCNC(=N)N)C(N)=O [drawing 26] ({CH2CO}-[dY]KGD[Pen]R-NH2; thioether N-5),NORMAL
12,N=C(N)NCCC[C@H](NC(=O)[C@@H]1CCCC(=O)N[C@H](Cc2ccc(O)cc2)C(=O)N[C@@H](CCCNC(=N)N)C(=O)NCC(=O)N[C@@H](CC(=O)O)C(=O)N1)C(N)=O [drawing 28] ([dY]RGD[Aad]R-NH2; lactam N-5),NORMAL
13,N=C(N)NCCC[C@@H]1NC(=O)[C@@H](Cc2ccc(O)cc2)NC(=O)CCC[C@@H](C(=O)N[C@@H](CCCCN)C(N)=O)NC(=O)[C@H](CC(=O)O)NC(=O)CNC1=O [drawing 29] ([dY]RGD[Aad]K-NH2; lactam N-5),NORMAL
14,N=C(N)NCCC[C@@H]1NC(=O)[C@@H](Cc2ccc(O)cc2)NC(=O)CSC[C@@H](C(=O)N[C@@H](CCCCN)C(=O)O)NC(=O)[C@H](CC(=O)O)NC(=O)CNC1=O [drawing 32] ({CH2CO}-[dY]RGDCK-OH; thioether N-5),NORMAL

# Same assay, conditions: rabbit, i.v. bolus .375 mg/kg + 0.009 mg/kg infused over 60 minutes; measured visually
row,PBF,Compound
1,NORMAL,N=C(N)NCCC[C@@H]1NC(=O)[C@@H](Cc2ccc(O)cc2)NC(=O)C[S+]([O-])C[C@@H](C(=O)O)NC(=O)[C@H](CC(=O)O)NC(=O)CNC1=O (stereo partly drawn) ([dY]RGD[Cys(O)(CH2CO)]-OH; lactam N-5)

# Target: human platelet rich plasma (PRP) (Homo sapiens, UniProt P05106+P08514)
# Sequence (P08514 32-1039): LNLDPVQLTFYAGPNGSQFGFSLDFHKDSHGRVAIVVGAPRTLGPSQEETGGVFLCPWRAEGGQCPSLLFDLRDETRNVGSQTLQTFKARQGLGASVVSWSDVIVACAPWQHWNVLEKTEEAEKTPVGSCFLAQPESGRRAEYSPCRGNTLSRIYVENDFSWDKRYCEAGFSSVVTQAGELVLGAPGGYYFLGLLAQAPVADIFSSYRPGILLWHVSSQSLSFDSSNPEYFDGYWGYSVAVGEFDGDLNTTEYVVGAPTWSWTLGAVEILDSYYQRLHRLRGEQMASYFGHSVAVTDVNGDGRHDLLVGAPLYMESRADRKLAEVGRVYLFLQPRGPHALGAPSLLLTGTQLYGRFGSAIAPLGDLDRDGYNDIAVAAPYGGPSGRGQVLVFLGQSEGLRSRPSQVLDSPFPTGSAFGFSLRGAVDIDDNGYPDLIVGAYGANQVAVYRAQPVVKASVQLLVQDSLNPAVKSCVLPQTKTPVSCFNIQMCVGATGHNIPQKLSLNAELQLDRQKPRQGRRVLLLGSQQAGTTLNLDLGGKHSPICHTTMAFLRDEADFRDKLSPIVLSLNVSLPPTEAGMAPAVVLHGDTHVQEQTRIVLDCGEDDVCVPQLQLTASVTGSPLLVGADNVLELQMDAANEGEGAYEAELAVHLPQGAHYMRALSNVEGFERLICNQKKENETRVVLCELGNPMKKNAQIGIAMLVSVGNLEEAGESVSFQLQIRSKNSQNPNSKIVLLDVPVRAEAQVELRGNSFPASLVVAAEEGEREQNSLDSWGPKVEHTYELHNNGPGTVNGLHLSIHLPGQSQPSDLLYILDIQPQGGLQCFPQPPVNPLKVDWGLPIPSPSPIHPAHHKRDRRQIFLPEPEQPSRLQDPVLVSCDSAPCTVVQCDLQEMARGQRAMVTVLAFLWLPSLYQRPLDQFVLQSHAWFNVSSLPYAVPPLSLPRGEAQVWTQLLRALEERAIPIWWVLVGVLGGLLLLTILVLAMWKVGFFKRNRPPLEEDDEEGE
# Sequence (P05106 27-788): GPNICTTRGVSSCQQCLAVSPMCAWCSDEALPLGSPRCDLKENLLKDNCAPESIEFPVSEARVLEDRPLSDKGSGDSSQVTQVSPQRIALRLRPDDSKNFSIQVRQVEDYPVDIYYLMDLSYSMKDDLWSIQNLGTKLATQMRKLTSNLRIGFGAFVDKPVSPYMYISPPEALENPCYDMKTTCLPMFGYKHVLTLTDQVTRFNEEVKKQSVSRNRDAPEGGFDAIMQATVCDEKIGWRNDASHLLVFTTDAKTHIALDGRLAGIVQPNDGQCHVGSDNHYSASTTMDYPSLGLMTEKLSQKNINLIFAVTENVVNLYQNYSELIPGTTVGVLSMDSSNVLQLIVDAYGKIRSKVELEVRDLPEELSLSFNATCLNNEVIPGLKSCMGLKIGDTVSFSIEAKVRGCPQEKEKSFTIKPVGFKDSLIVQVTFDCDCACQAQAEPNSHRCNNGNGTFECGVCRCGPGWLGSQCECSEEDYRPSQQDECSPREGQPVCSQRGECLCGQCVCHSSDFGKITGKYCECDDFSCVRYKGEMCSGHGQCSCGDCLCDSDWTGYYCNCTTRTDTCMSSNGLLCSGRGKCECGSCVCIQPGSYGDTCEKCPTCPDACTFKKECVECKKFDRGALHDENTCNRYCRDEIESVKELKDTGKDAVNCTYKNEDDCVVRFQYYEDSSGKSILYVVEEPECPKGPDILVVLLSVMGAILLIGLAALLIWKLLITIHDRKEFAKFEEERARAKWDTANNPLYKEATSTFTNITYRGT
# Experiment: In Vitro Human Platelet Aggregation Assay
# Format: cell-based
# Conditions: human PRP; read-out: Human Platelet Aggregation IC50
# Protocol: Platelet aggregation assays are performed in human platelet rich plasma (PRP). Fifty milliliters of whole human blood (9 parts) is drawn on 3.6% sodium citrate (1 part) from a donor who has not taken aspirin or related medications for at least two weeks. The blood is centrifuged at 160×g for 10 minutes at 22° C. and allowed to stand for 5 minutes after which the PRP is decanted. Platelet poor plasma (PPP) is isolated from the remaining blood after centrifugation at 2000×g for 25 minutes. The platelet count of the PRP is diluted to about 300,000 platelets per microliter with PPP.
# A 225 μl aliquot of PRP plus 25 μl of either a dilution of the test inhibitor sample or a control (PBS) is incubated for 5 minutes in a Chrono-log Whole Blood Aggregometer at 25° C. An aggregating agent (collagen, 1 μg/ml; U46619, 100 ng/ml; or ADP, 17 μM) is added and the transmission is recorded.
row,Compound,IC50
1,"N=C(N)NCCC[C@@H]1NC(=O)[C@@H](Cc2ccc(O)cc2)NC(=O)CSC[C@@H](C(=O)N[C@@H](CCCCN)C(=O)O)NC(=O)[C@H](CC(=O)O)NC(=O)CNC1=O [7/25, cyclo-S-acetyl-dTyr--Arg--Gly--Asp--Cys--Lys--OH] ({CH2CO}-[dY]RGDCK-OH; thioether N-5)",370 nM
2,cyclo-S-acetyl-dTyr--Arg--Gly--Asp--Cys--Tyr--Arg--NH2 [7/43],350 nM
